Experimental data from ChEMBL document CHEMBL1649237, “IND-6, a highly divergent IND-type metallo-beta-lactamase from Chryseobacterium indologenes strain 597 isolated in Burkina Faso” (2009).
In brackets after ≈: the same amount, converted by molar mass.

Tests used:
Format in all cases: functional
[1] = system: Chryseobacterium indologenes; test: Antimicrobial activity against Chryseobacterium indologenes 597 expressing metallo-beta-lactamase IND-6 after 18 hrs by broth microdilution method; conditions: Chryseobacterium indologenes, 597, 18 h
[2] = system: Chryseobacterium indologenes; test: Antimicrobial activity against Chryseobacterium indologenes 597 expressing metallo-beta-lactamase IND-6 after 18 hrs by broth microdilution method in presence of beta-lactamase inhibitor Tazobactam; conditions: Chryseobacterium indologenes, 597, 18 h
[3] = system: Escherichia coli; test: Antimicrobial activity against Escherichia coli DH5alpha harboring metallo-beta-lactamase IND-6 after 18 hrs by broth microdilution method; conditions: DH5[alpha]
[4] = system: Escherichia coli; test: Antimicrobial activity against Escherichia coli DH5alpha harboring plasmid pBC-SK after 18 hrs by broth microdilution method; conditions: DH5[alpha]
[5] = system: Chryseobacterium indologenes; test: Antimicrobial activity against Chryseobacterium indologenes 597 expressing metallo-beta-lactamase IND-6 after 18 hrs by broth microdilution method in presence of beta-lactamase inhibitor clavulanic acid; conditions: Chryseobacterium indologenes, 597, 18 h

CCN1CCN(C(=O)N[C@@H](C(=O)N[C@@H]2C(=O)N3[C@@H]2SC(C)(C)[C@@H]3C(=O)O)c2ccccc2)C(=O)C1=O [PIPERACILLIN]
MIC [1]: 4 µg/mL (≈ 7.73 µM)
MIC [2]: 4 µg/mL

CO[C@@]1(NC(=O)Cc2cccs2)C(=O)N2C(C(=O)O)=C(COC(N)=O)CS[C@@H]21 [CEFOXITIN]
MIC [1]: 16 µg/mL (≈ 37.4 µM)
MIC [3]: 16 µg/mL (≈ 37.4 µM)
MIC [4]: 2 µg/mL (≈ 4.68 µM)

CC1(C)S[C@@H]2[C@H](NC(=O)[C@H](C(=O)O)c3ccsc3)C(=O)N2[C@H]1C(=O)O [TICARCILLIN]
MIC [3]: 256 µg/mL (≈ 666 µM)
MIC [4]: 4 µg/mL (≈ 10.4 µM)

CC(=O)OCC1=C(C(=O)O)N2C(=O)[C@@H](NC(=O)Cc3cccs3)[C@H]2SC1 [CEPHALOTHIN]
MIC [1]: ≥ 64 µg/mL
MIC [3]: 64 µg/mL (≈ 161 µM)
MIC [4]: 4 µg/mL (≈ 10.1 µM)

CO[C@@]1(NC(=O)C(C(=O)O)c2ccsc2)C(=O)N2[C@@H](C(=O)O)C(C)(C)S[C@@H]21 (stereo partly specified) [TEMOCILLIN]
MIC [3]: 16 µg/mL (≈ 38.6 µM)
MIC [4]: 4 µg/mL (≈ 9.65 µM)

CC1(C)S[C@@H]2[C@H](NC(=O)[C@H](N)c3ccccc3)C(=O)N2[C@H]1C(=O)O [AMPICILLIN]
MIC [1]: ≥ 64 µg/mL
MIC [3]: 32 µg/mL (≈ 91.6 µM)

C[C@H]1[C@H](NC(=O)/C(=N\OC(C)(C)C(=O)O)c2csc(N)n2)C(=O)N1S(=O)(=O)O [AZTREONAM]
MIC [3]: 0.25 µg/mL (≈ 0.574 µM)
MIC [4]: 0.25 µg/mL (≈ 0.574 µM)

C[C@@H](O)[C@H]1C(=O)N2C(C(=O)O)=C(SCCNC=N)C[C@H]12 [IMIPENEM ANHYDROUS]
MIC [1]: ≥ 64 µg/mL
MIC [3]: 1 µg/mL (≈ 3.34 µM)

CO/N=C(\C(=O)N[C@@H]1C(=O)N2C(C(=O)O)=C(COC(N)=O)CS[C@H]12)c1ccco1 [CEFUROXIME]
MIC [1]: ≥ 64 µg/mL
MIC [3]: 32 µg/mL (≈ 75.4 µM)
MIC [4]: 2 µg/mL (≈ 4.71 µM)

C[C@@H](O)[C@H]1C(=O)N2C(C(=O)O)=C(S[C@@H]3CN[C@H](C(=O)N(C)C)C3)[C@H](C)[C@H]12 [MEROPENEM]
MIC [1]: 8 µg/mL (≈ 20.9 µM)
MIC [3]: 0.12 µg/mL (≈ 0.313 µM)
MIC [4]: 0.03 µg/mL (≈ 0.0782 µM)

CO/N=C(\C(=O)N[C@@H]1C(=O)N2C(C(=O)O)=C(COC(C)=O)CS[C@H]12)c1csc(N)n1 [CEFOTAXIME]
MIC [1]: 32 µg/mL (≈ 70.3 µM)
MIC [3]: 0.5 µg/mL (≈ 1.1 µM)
MIC [4]: 0.12 µg/mL (≈ 0.263 µM)

CO/N=C(\C(=O)N[C@@H]1C(=O)N2C(C(=O)O)=C(CSc3nc(=O)c(O)nn3C)CS[C@H]12)c1csc(N)n1 [CEFTRIAXONE]
MIC [3]: 0.12 µg/mL (≈ 0.216 µM)
MIC [4]: 0.03 µg/mL (≈ 0.0541 µM)

CC(C)(O/N=C(\C(=O)N[C@@H]1C(=O)N2C(C(=O)[O-])=C(C[n+]3ccccc3)CS[C@H]12)c1csc(N)n1)C(=O)O [CEFTAZIDIME]
MIC [1]: 8 µg/mL (≈ 14.6 µM)
MIC [3]: 1 µg/mL (≈ 1.83 µM)
MIC [4]: 0.12 µg/mL (≈ 0.22 µM)

CO/N=C(\C(=O)N[C@@H]1C(=O)N2C(C(=O)[O-])=C(C[N+]3(C)CCCC3)CS[C@H]12)c1csc(N)n1 [CEFEPIME]
MIC [1]: 1 µg/mL (≈ 2.08 µM)
MIC [3]: 0.12 µg/mL (≈ 0.25 µM)
MIC [4]: 0.03 µg/mL (≈ 0.0624 µM)

CC1(C)S[C@@H]2[C@H](NC(=O)[C@H](N)c3ccc(O)cc3)C(=O)N2[C@H]1C(=O)O [AMOXICILLIN]
MIC [5]: ≥ 64 µg/mL
